Entries after “also recorded” stand apart in the source; their conditions may differ.
What was measured:
[1] = Pharmacokinetics of probe drug cocktail in rats with or without vonoprazan administration
Excerpt: The mobile phase comprising acetonitrile (A) and 0.1% formic acid water (B) was set with a 0.40-ml/min flow rate. […] MassLynx 4.1 software (Waters Corp., Milford, MA, USA) was used for data acquisition, and the UPLC-MS/MS chromatogram of blank plasma that was spiked with probe drugs and metabolites is shown below ( Figure 1 ).
Ten specific pathogen-free (SPF) grade Sprague–Dawley rats (male, 220 ± 20 g) were provided by Wenzhou Medical University Laboratory Animal Research Center. This study was carried out in accordance with the principles of the Basel Declaration and recommendations of Wenzhou Medical University Administration Committee of Experimental Animals. The protocol was approved by the Wenzhou Medical University Administration Committee of Experimental Animals (ID Number: wydw2019-650). Ten rats were randomly divided into two groups: the vonoprazan group (n = 5) and control group (n = 5). Both groups were fasted overnight before experiments but were allowed water all the time. The six probe drug mixtures and vonoprazan were dissolved in 0.5% carboxy methyl cellulose sodium (CMC-Na), respectively. The vonoprazan group was administered 5 mg/kg of vonoprazan for 14 days. The control group was administered 0.5% CMC-Na.
Next, the samples were collected into 1.5-ml centrifuge tubes and were immediately centrifuged for 10 min at 4,000 rpm speed. For every 100 µl of rat plasma was added with 200 µl of acetonitrile in 0.5 μg/ml of IS was added, followed by vortex mixing for one minute. […] In vitro DDI detection system, the pH was 7.4 and the component of buffer was consisted of 100 mM potassium phosphate.
The GraphPad (version 7.0; GraphPad Software Inc., San Diego, CA, USA) was applied to calculate IC50 values and plot plasma concentration-time curves. The pharmacokinetic parameters using noncompartmental analysis was calculated by DAS (version 3.2.8; Wenzhou Medical University, China). Statistical comparisons within groups were conducted by SPSS (version 25.0; SPSS Inc., Chicago, IL, USA), using Student's t-test.

CYP3A4 = test: Reversible inhibition of midazolam metabolism by vonoprazan in rat liver microsomes (probe cocktail, UPLC-MS/MS); assay type: in vitro ADME; settings: pH 7.4, probe midazolam (5 μM), rat liver microsomes 0.5 mg/ml, n = 3
Description: (§1) The pooled rat liver microsomes (RLMs) obtained from eight rats, which were weighed and homogenized with cold […] phosphate-buffered saline (PBS), containing […]. After centrifugation for 15 min at 11,000 rpm, the supernatants were separated and transferred into new tubes for another 15-min centrifugation at 11,000 rpm. Next, ultracentrifugation was performed at […] at 4°C for 1 h., and the microsomal pellets were resuspended with cold […] PBS and stored at −80°C ([Wang et al., 2015]). The protein concentration of RLMs was determined using the Bradford Protein Assay Kit (Thermo Scientific, Waltham, MA, USA).
(§2) Next, vonoprazan was applied as the inhibitor to determine the half maximal inhibitory concentration (IC50). […]. After preincubation in a shaking water bath at 37°C for 5 min, an NADPH-regenerating system was added to initiate the reaction in a final volume of 200 μl. The reaction was performed for 30 min, and was stopped by cooling to −80°C immediately. Next, 20 μl of internal standard (IS) working solution and 200 μl of acetonitrile were added. Centrifugation was performed at 13,000 rpm for 5 min after vortexing for 1 min. The supernatant mixture (2 μl) was injected into the UPLC–MS/MS system for analysis.

CYP1A2 = target: T1, CYP1A2 (Rattus norvegicus, UniProt P04799); test: Reversible inhibition of phenacetin metabolism by vonoprazan in rat liver microsomes (probe cocktail, UPLC-MS/MS); assay type: in vitro ADME; settings: vonoprazan 1-100 μM, phenacetin 40 μM
T1 construct: contained 0.5 mg/ml of RLMs; from tissue; host or cells: pooled rat liver microsomes
T1 sequence (P04799 1-513): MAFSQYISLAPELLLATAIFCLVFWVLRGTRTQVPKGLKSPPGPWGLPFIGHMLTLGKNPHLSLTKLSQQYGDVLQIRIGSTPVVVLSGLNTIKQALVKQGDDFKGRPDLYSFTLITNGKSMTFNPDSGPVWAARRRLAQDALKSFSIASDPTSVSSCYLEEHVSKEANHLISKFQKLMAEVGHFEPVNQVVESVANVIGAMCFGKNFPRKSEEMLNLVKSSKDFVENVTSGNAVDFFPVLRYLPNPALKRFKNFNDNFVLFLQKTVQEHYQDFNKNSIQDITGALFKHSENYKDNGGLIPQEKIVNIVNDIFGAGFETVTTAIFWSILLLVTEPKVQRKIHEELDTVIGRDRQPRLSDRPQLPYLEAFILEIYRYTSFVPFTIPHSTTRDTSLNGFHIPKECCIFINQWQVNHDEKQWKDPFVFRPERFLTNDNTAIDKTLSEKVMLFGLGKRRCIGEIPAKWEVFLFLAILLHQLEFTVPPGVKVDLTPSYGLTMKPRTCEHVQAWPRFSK
Description: as §1, §2

[2] = set-up: method as in Kogame et al., 2017; settings: rats; ref Kogame et al., 2017; cited from earlier work
CYP2C9 = test: Reversible inhibition of tolbutamide metabolism by vonoprazan in rat liver microsomes (probe cocktail, UPLC-MS/MS); assay type: in vitro ADME; settings: pH 7.4, probe tolbutamide (10 μM), IC50 of vonoprazan on tolbutamide metabolism (CYP2C9), rat liver microsomes 0.5 mg/ml, n = 3
Description: as §1, §2

CYP2D6 = test: Reversible inhibition of dextromethorphan metabolism by vonoprazan in rat liver microsomes (probe cocktail, UPLC-MS/MS); assay type: in vitro ADME; settings: pH 7.4, probe dextromethorphan (100 μM), rat liver microsomes 0.5 mg/ml, n = 3
Description: as §1, §2

CYP2B6 = test: Reversible inhibition of bupropion metabolism by vonoprazan in rat liver microsomes (probe cocktail, UPLC-MS/MS); assay type: in vitro ADME; settings: pH 7.4, probe bupropion (20 μM)
Description: as §1, §2

[3] = male, Sprague-Dawley, rat, in vivo, po, 10 mg/kg
[4] = rats, Student's t-test, P < 0.05
[5] = rats, vonoprazan group vs control group
[6] = male, Sprague-Dawley, rat, in vivo
[7] = male, Sprague-Dawley, rat, in vivo, po

## Cc1ncc2n1-c1ccc(Cl)cc1C(c1ccccc1F)=NC2 [Midazolam]
[1]; [3]
  AUC(0-inf): 657 ± 198 ng·h/mL
  AUC(0-t): 625 ± 194 ng·h/mL
  CL/F: 282 mL/min/kg
  Cmax: 335 ± 191 ng/mL
  MRT inf: 2.34 ± 1.12 h
  MRT last: 1.9 ± 0.6 h
  Tmax: 0.18 ± 0.09 h
  Vd/F: 39.4 ± 20.4 L/kg
  half-life: 1.85 ± 1.18 h
[1]; [4]
  Difference in pharmacokinetic parameters after vonoprazan administration compared with the control group: significant differences
[1]; rats, Student's t-test, P < 0.05, listed as midazolam
  Difference in pharmacokinetic parameters after vonoprazan administration compared with the control group: significant
[1]; [5]
  Decrease of CLz/F by vonoprazan: 54.7%
  Increase of AUC0→t compared with the control group: 1.17 fold
  Increase of AUC0→∞ compared with the control group: 1.25 fold
  Increase of Tmax by addition of vonoprazan: 1.50 fold

## CCCCNC(=O)NS(=O)(=O)c1ccc(C)cc1 [Tolbutamide]
[1]; [6]
  Increase of AUC0→t compared with the control group: 0.86 fold
  Increase of AUC0→∞ compared with the control group: 0.83 fold
  Increase of Cmax by addition of vonoprazan: 0.67 fold
[1]; [7]
  CL/F: 0.167 mL/min/kg
  Tmax: 3 ± 1 h
  Vd/F: 0.03 ± 0.01 L/kg
  half-life: 4.99 ± 1.56 h

## CNCc1cc(-c2ccccc2F)n(S(=O)(=O)c2cccnc2)c1 [vonoprazan, Vonoprazan]
CYP3A4
  IC50 at 30 min: […]
CYP1A2
  Inhibition of phenacetin metabolism (CYP1A2) by vonoprazan: no inhibition; also recorded: no effect
[2]
  Reference maximum plasma concentration level: […]
CYP2C9
  IC50 at 30 min: 18.3 µM
CYP2D6
  IC50 at 30 min: 3.62 µM
CYP2B6
  IC50 at 30 min: 3.68 µM

## CC(NC(C)(C)C)C(=O)c1cccc(Cl)c1 (stereo not shown) [Bupropion]
[1]; [6]
  Decrease of CLz/F by vonoprazan: 70.6%
  Decrease of Vz/F by vonoprazan: 53.3%
  Increase of AUC0→t compared with the control group: 2.17 fold
  Increase of AUC0→∞ compared with the control group: 2.30 fold
  Increase of Cmax by addition of vonoprazan: 2.33 fold
[1]; [3]
  AUC(0-inf): 243 ± 107 ng·h/mL
  AUC(0-t): 242 ± 106 ng·h/mL
  CL/F: 863 mL/min/kg
  Cmax: 97.1 ± 55.5 ng/mL
  MRT inf: 2.78 ± 0.57 h
  MRT last: 2.72 ± 0.51 h
  Tmax: 0.37 ± 0.36 h
  Vd/F: 99.1 ± 53.7 L/kg
  half-life: 1.38 ± 0.25 h

## CCOc1ccc(NC(C)=O)cc1 [Phenacetin]
[1]; [3]
  AUC(0-inf): 5040 ng·h/mL
  AUC(0-t): 5040 ng·h/mL
  CL/F: 37.5 mL/min/kg
  Cmax: 3870 ng/mL
  MRT inf: 1.13 ± 0.21 h
  MRT last: 1.12 ± 0.2 h
  Tmax: 0.3 ± 0.11 h
  Vd/F: 1.97 ± 0.81 L/kg
[1]; rat, in vivo
  Difference in pharmacokinetic parameters after vonoprazan administration compared with the control group: not significantly different

## COc1ccc2c(c1)[C@]13CCCC[C@@H]1[C@H](C2)N(C)CC3 [Dextromethorphan]
[1]; [7]
  CL/F: 532 mL/min/kg
  Tmax: 0.75 ± 0.77 h
  Vd/F: 125 ± 88.5 L/kg
  half-life: 2.61 ± 1.47 h
[1]; [4]
  Difference in pharmacokinetic parameters after vonoprazan administration compared with the control group: significant differences
[1]; [5]
  Decrease of CLz/F by vonoprazan: 61.0%
  Increase of AUC0→t compared with the control group: 1.52 fold
  Increase of AUC0→∞ compared with the control group: 1.50 fold
  Increase of Cmax by addition of vonoprazan: 1.87 fold

## CCCCNC(=O)NS(=O)(=O)c1ccc(C)cc1 [Vonoprazan + tolbutamide]
[1]; rat, in vivo, po
  CLz/F: 0.033 ± 0.017 mL/min/kg
  Tmax: 3.60 ± 1.34 h
  Vz/F: 0.0140 ± 0.0020 L/kg
  t1/2z: 4.83 ± 1.27 h

Source: publication PMC7033572, “Cytochrome P450-Based Drug-Drug Interactions of Vonoprazan In Vitro and In Vivo” (Frontiers in Pharmacology, 2020)
